Here are results for one compound from patent US20230046617A1, “METHOD FOR PROMOTING EXPANSION OF HEMATOPOIETIC STEM CELLS AND AGENT FOR USE IN THE METHOD” (FARON PHARMACEUTICALS OY, priority 2020, published 2023).

The test system of assay [1] is human CD45+ cells engraftment in the BM of NBSGW mice. In words: In vivo engraftment of sorted human BM cells in non-irradiated NBSGW mice. To be noted: VAP-1+ cells in the transfer pool; inhibitor 10 mg/kg i.p. three times a week for six weeks; cut-off 0.1% human CD45+. From the text: Human fresh frozen BM CD34+ cells (LONZA) were thawed and stained with APC conjugated mouse anti-Lineage cocktail, PE-Cy7-conjugated anti-CD34 and FITC-conjugated monoclonal antibodies 1B2, TK8-14, and JG-2 against different epitopes of human VAP-1. For batch cell sorting of VAP-1^+/lo and VAP-1^− cells we used a Sony SH800 cell sorter with class A2 Level II biosafety cabinet using 130 μm microfluidic sorting chips. The NBSGW (immune-deficient, c-Kit-deficient) mice not needing irradiation to accept human cells were used as […]. In the VAP-1^− group 19000 cells and in the VAP-1−+VAP-1^+/lo group 16250 VAP-1^− cells and 2750 VAP-1^+/lo cells were intravenously injected per animal. […] Samples were run on LSR fortessa and the data was analyzed with FlowJo. Percentage of chimerism [% chimerism=(% test donor-derived cells)×100/((% test donor-derived cells+(% competitor-derived cells))] was calculated as described (Ema et al., “Adult mouse hematopoietic stem cells: purification and single-cell assays”, Nat Protoc 2006 1(6), 2979-2987).

Assay [2] has as its system human BM-derived CD34+ cells. As to the kind of experiment: CFU assay of human BM-derived CD34+ cells with replating. Format: cell-based. As to conditions: LJP-1586 0.5 μM. How it is done:
(§1) The progeny of 900 CD38^−CD34^+ cells collected from 15-day-old in vitro cultures, obtained as described above, were grown in methylcellulose-based medium (H4436, STEMCELL Technologies) containing or lacking LJP-1586. After 14 days, single, multilineage, and mixed colonies were visually scored by microscopy. Cryopreserved human CD34^+ cells from AllCells were thawed, resuspended, and counted according to the manufacturer's protocol. Five hundred thawed human BM CD34^+ cells were cultured in complete methylcellulose-based medium (H4436, STEMCELL Technologies) containning or lacking LJP-1586. The total number of colonies was counted at 14 days after plating. Replating was performed twice by harvesting and dissociating cells under sterile conditions.

The test system of assay [3] is human umbilical CB-derived HSCs (CD34+CD38-). As to the kind of experiment: Liquid culture expansion of umbilical cord blood derived HSCs. Format: cell-based. The method, then:
For human umbilical CB cells, an antibody-based EasySep kit was used to enrich CD34^+CB cells, which were subsequently stained with anti-CD38 and anti-CD34 antibodies. CD38^−CD34^+ cells were sorted using a FACSAria Ilu instrument (BD Biosciences) and then cultured in StemSpan SFEM medium II (STEMCELL Technologies) containing human stem cell factor (100 ng/ml), FMS-like tyrosine kinase 3 ligand (100 ng/ml), and thrombopoietin (50 ng/ml) (all from Peprotech). Cells were seeded at a density of 1×10^3 per ml. LJP-1586 was added immediately after plating when indicated. Cultures were maintained for 21 days, and half the medium was replaced by that containing the same cytokines and LJP-1586 on days 5, 8, 12, 15, and 18. CD34^+ cells from human umbilical CB were isolated via a two-step procedure using Ficoll-Plaque gradient centrifugation (Amersham Pharmacia Biotech, Uppsala, Sweden) and an EasySep Human Cord Blood CD34 Positive Selection Kit II (STEMCELL Technologies). For batch and single cell sorting of VAP-1^+ and VAP-1^− cells from CB we used a Sony SH800 cell sorter with class A2 Level II biosafety cabinet using 130 μm microfluidic sorting chips. This sorter applies low shear stress on cells allowing better survival during cell culture. CD34^+ cells were also sorted into VAP-1^+ and VAP-1^−HSCs (Lineage-CD34+CD38). From these, 100 VAP-1+ and VAP-1−HSCs were then cultured in StemSpan SFEM medium II (STEMCELL Technologies) containing human stem cell factor (100 ng/ml), FMS-like tyrosine kinase 3 ligand (100 ng/ml), and thrombopoietin (50 ng/ml) (all from Peprotech). LJP-1586 was added immediately after plating at a concentration of 1 μM. Cultures were maintained for 20 days. Fresh medium containing the same cytokines and LJP-1586 was added on days 5, 8, 10, 12, 15 and 18. The cells were analysed on days 10 and 15 for CD38−CD34+CD45RA−CD90+ expression using LSR Fortessa instrument (BD Biosciences). Alternatively, a VAP-1 inhibitor szTU73 was used in CB cultures at concentrations 1, 5 and 10 micromolar.

Assay [4] deals with ROS in human CD34+ BM cells (CD38-CD34+ gated). In words: ROS production (oxidative burst) by DHR-123 and flow cytometry. Format: cell-based. As to conditions: 9-day liquid cultures, PMA activation, bone marrow derived HSCs. How it is done: Human CD34^+BM cells were liquid cultured for nine days in StemSpan SFEM medium II (STEMCELL Technologies) containing human stem cell factor (100 ng/ml), FMS-like tyrosine kinase 3 ligand (100 ng/ml), and thrombopoietin (50 ng/ml) (all from Peprotech) with or without LJP-1586. After nine days, the cells were stained with anti-CD38 and anti-CD34 antibodies, washed using DMEM, centrifuged and resuspended in 100 μl DMEM. Then, ROS were detected by DHR-123 reagent (Molecular Probes). For this, DHR-123 was diluted in DMSO and kept as a 5 mM stock solution at −20° C. for single use. […] The cells were then incubated for 10 min at 37° C. and followed by activation with Phorbol 12-myristate 13-acetate (PMA) (Sigma-Aldrich. The stock solution of PMA was frozen at 1 mg/ml in DMSO, freshly thawed and diluted 500 times in order to add 12.5 μl to a final concentration of 200 ng/ml. After 20 min at 37° C., the cells were washed with PBS, resuspended and analyzed by flow cytometry. The red DHR123 turns to green after oxidation. CD38^− and CD34^+ positive cells were gated and fluorescence intensity of oxidized DHR-123 was measured from the filter channel 530 nm/30 nm using LSR Fortessa instrument (BD Biosciences) and analyzed by FlowJo software (Tree Star).

Another assay concerns CB-derived HSCs. In words: CFU assay of CB-derived cells expanded in liquid culture. The assay is classed as cell-based, human. To be noted: after 15 days liquid culture with LJP-1586 (0.5 μM), then CFU assay with LJP-1586. The method, then:
as §1

Consider `COc1ccc(C/C(=C/F)CN)cc1.Cl` [LJP-1586, Z-3-fluoro-2-(4-methoxybenzyl)allylamine hydrochloride], for which the “mice that accepted the human BM engraftment” value in assay [1] is on record as 3/3. Besides, in assay [2] (after dissociating and re-plating twice), the “number of CFUs higher than control cultures after re-plating” value turned out to be 92%. Moreover, in assay [2] (first plating, 500 BM CD34+ cells), the “number of CFUs higher than control cultures” value is reported as 33%. In addition, in assay [3] (1 μM, 15 days, average of three donors), the “number of primitive HSCs (CD34+CD38-CD45RA-CD90+CD49f+) compared to non-treated cultures” value was 11 times. Besides, the “HSC expansion compared to control cells” value in assay [3] (1 μM, grown for 18 days) is “more than 31 times”. The “share of HSCs in gate P-3 that were primitive HSCs” value in assay [3] (CD34+CD38-CD45RA-CD90+CD49f+) is reported as “More than 12%”. Besides, in assay [3] (day 20, 1 μM), the “expansion of VAP-1+ HSCs in long term liquid cultures” value is recorded as “boosted their expansion”. In addition, in assay [3] (higher or lower concentrations than 1 μM), the “expansion of HSCs at other concentrations” value is given as “less efficient”. Besides, the “ROS reduction (MFI) compared to control cells” value in assay [4] worked out at 62%. Besides, in the assay with CB-derived HSCs, the “number of CFUs compared to control cultures” value is 7.9 times.
